{"source": "patent US20260256792A1", "about": "“TREATMENT OF CHRONIC SPONTANEOUS URTICARIA BY ADMINISTERING (R)-2-[3-[4-AMINO-3-(2-FLUORO-4-PHENOXY-PHENYL)PYRAZOLO[3,4-D]PYRIMIDIN-1-YL]PIPERIDINE-1-CARBONYL]-4-METHYL-4-[4-(OXETAN-3-YL)PIPERAZIN-1-YL]PENT-2-ENENITRILE” (priority 2023, published 2026)", "tested_on": "angioedema in CSU patients", "test": "Phase 2 CSU study: angioedema activity score over 7 days (AAS7)", "format": "in vivo, human", "conditions": "400 mg QPM; for AAS7 = 0, Non-responder n (%) / AAS7 = 0, OR (95% CI) for rilzabrutinib vs. placebo / AAS7 = 0, RRD (%) for rilzabrutinib vs. placebo (95% CI) / AAS7 Post-baseline Mean (SD) / Participants with AAS7 = 0, Responder n (%) / AAS7 % Change difference for rilzabrutinib vs. placebo LS Mean (95% CI) / AAS7 % Change from baseline LS Mean (SE) / AAS7 Change difference for rilzabrutinib vs. placebo LS Mean (95% CI) / AAS7 Change from baseline LS Mean (SE): angioedema at baseline; for Non-responder n (%), AAS7 = 0 / OR (95% CI) for rilzabrutinib vs. placebo, AAS7 = 0 / RRD (%) for rilzabrutinib vs. placebo (95% CI), AAS7 = 0 / Responder n (%), AAS7 = 0: outlier removed", "text": "The study comprises a 12 week, randomized, double-blind, placebo-controlled, multi-center, dose-ranging efficacy and safety phase, followed by a 40 week open label extension (OLE) phase (see FIG. 1). The study consists of three phases and an optional OLE phase. […] The weekly angioedema activity score (AAS7) was proposed as a tertiary endpoint. […] Patients were to complete the AAS using the e-diary. The e-diary was to be used once daily on the same time of each day recording of participant's answers to the angioedema activity score over 7 days (AAS7) questionnaire.", "data": [{"smiles": "CC(C)(C=C(C#N)C(=O)N1CCC[C@@H](n2nc(-c3ccc(Oc4ccccc4)cc3F)c3c(N)ncnc32)C1)N1CCN(C2COC2)CC1", "note": "[rilzabrutinib, (R)-2-[3-[4-amino-3-(2-fluoro-4-phenoxy-phenyl)pyrazolo[3,4-d]pyrimidin-1-yl]piperidine-1-carbonyl]-4-methyl-4-[4-(oxetan-3-yl)piperazin-1-yl]pent-2-enenitrile]", "values": [{"measurement": "AAS7 = 0, Non-responder n (%)", "setting": "Week 4, omalizumab-naïve", "result": "21 (77.8) n (%)"}, {"measurement": "AAS7 = 0, OR (95% CI) for rilzabrutinib vs. placebo", "setting": "Week 4, omalizumab-naïve", "result": 0.869}, {"measurement": "AAS7 = 0, RRD (%) for rilzabrutinib vs. placebo (95% CI)", "setting": "Week 4, omalizumab-naïve", "result": "−2.4", "unit": "%"}, {"measurement": "AAS7 Post-baseline Mean (SD)", "setting": "Week 4, omalizumab-naïve", "result": "29.55 (20.68)"}, {"measurement": "Participants with AAS7 = 0, Responder n (%)", "setting": "Week 4, omalizumab-naïve", "result": "6 (22.2) n (%)"}, {"measurement": "AAS7 % Change difference for rilzabrutinib vs. placebo LS Mean (95% CI)", "setting": "Week 5, ITT", "result": "−0.88 (−26.37, 24.61) %"}, {"measurement": "AAS7 % Change from baseline LS Mean (SE)", "setting": "Week 5, ITT", "result": "−54.71 (9.56) %"}, {"measurement": "AAS7 Change difference for rilzabrutinib vs. placebo LS Mean (95% CI)", "setting": "Week 5, ITT", "result": "1.56 (−9.31, 12.42)"}, {"measurement": "AAS7 Change from baseline LS Mean (SE)", "setting": "Week 5, ITT", "result": "−28.04 (4.08)"}, {"measurement": "AAS7 Post-baseline Mean (SD)", "setting": "Week 5, ITT", "result": "25.01 (22.48)"}, {"measurement": "Non-responder n (%), AAS7 = 0", "setting": "Week 5, omalizumab-naïve", "result": "21 (56.8) n (%)"}, {"measurement": "OR (95% CI) for rilzabrutinib vs. placebo, AAS7 = 0", "setting": "Week 5, omalizumab-naïve", "result": 0.872}, {"measurement": "RRD (%) for rilzabrutinib vs. placebo (95% CI), AAS7 = 0", "setting": "Week 5, omalizumab-naïve", "result": "−3.4", "unit": "%"}, {"measurement": "Responder n (%), AAS7 = 0", "setting": "Week 5, omalizumab-naïve", "result": "16 (43.2) n (%)"}, {"measurement": "AAS7 % Change difference for rilzabrutinib vs. placebo LS Mean (95% CI)", "setting": "Week 5, omalizumab-naïve", "result": "−1.04 (−28.01, 25.93) %"}, {"measurement": "AAS7 % Change from baseline LS Mean (SE)", "setting": "Week 5, omalizumab-naïve", "result": "−55.66 (9.83) %"}, {"measurement": "AAS7 = 0, Non-responder n (%)", "setting": "Week 5, omalizumab-naïve", "result": "19 (70.4) n (%)"}, {"measurement": "AAS7 = 0, OR (95% CI) for rilzabrutinib vs. placebo", "setting": "Week 5, omalizumab-naïve", "result": 1.079}, {"measurement": "AAS7 = 0, RRD (%) for rilzabrutinib vs. placebo (95% CI)", "setting": "Week 5, omalizumab-naïve", "result": 1.6, "unit": "%"}, {"measurement": "AAS7 Post-baseline Mean (SD)", "setting": "Week 5, omalizumab-naïve", "result": "24.55 (22.80)"}, {"measurement": "Participants with AAS7 = 0, Responder n (%)", "setting": "Week 5, omalizumab-naïve", "result": "8 (29.6) n (%)"}, {"measurement": "AAS7 % Change difference for rilzabrutinib vs. placebo LS Mean (95% CI)", "setting": "Week 6, ITT", "result": "1.19 (−25.36, 27.75) %"}, {"measurement": "AAS7 % Change from baseline LS Mean (SE)", "setting": "Week 6, ITT", "result": "−46.12 (9.92) %"}, {"measurement": "AAS7 Change from baseline LS Mean (SE)", "setting": "Week 6, ITT", "result": "−25.61 (4.32)"}, {"measurement": "AAS7 Post-baseline Mean (SD)", "setting": "Week 6, ITT", "result": "27.97 (22.56)"}, {"measurement": "Non-responder n (%), AAS7 = 0", "setting": "Week 6, omalizumab-naïve", "result": "24 (64.9) n (%)"}, {"measurement": "OR (95% CI) for rilzabrutinib vs. placebo, AAS7 = 0", "setting": "Week 6, omalizumab-naïve", "result": 0.606}, {"measurement": "RRD (%) for rilzabrutinib vs. placebo (95% CI), AAS7 = 0", "setting": "Week 6, omalizumab-naïve", "result": "−11.4", "unit": "%"}, {"measurement": "Responder n (%), AAS7 = 0", "setting": "Week 6, omalizumab-naïve", "result": "13 (35.1) n (%)"}, {"measurement": "AAS7 % Change difference for rilzabrutinib vs. placebo LS Mean (95% CI)", "setting": "Week 6, omalizumab-naïve", "result": "2.62 (−26.14, 31.38) %"}, {"measurement": "AAS7 = 0, Non-responder n (%)", "setting": "Week 6, omalizumab-naïve", "result": "23 (85.2) n (%)"}, {"measurement": "AAS7 = 0, OR (95% CI) for rilzabrutinib vs. placebo", "setting": "Week 6, omalizumab-naïve", "result": 0.437}, {"measurement": "AAS7 = 0, RRD (%) for rilzabrutinib vs. placebo (95% CI)", "setting": "Week 6, omalizumab-naïve", "result": "−13.0", "unit": "%"}, {"measurement": "AAS7 Post-baseline Mean (SD)", "setting": "Week 6, omalizumab-naïve", "result": "28.26 (23.00)"}, {"measurement": "Participants with AAS7 = 0, Responder n (%)", "setting": "Week 6, omalizumab-naïve", "result": "4 (14.8) n (%)"}, {"measurement": "AAS7 % Change difference for rilzabrutinib vs. placebo LS Mean (95% CI)", "setting": "Week 7, ITT", "result": "16.32 (−13.52, 46.16) %"}, {"measurement": "AAS7 Change difference for rilzabrutinib vs. placebo LS Mean (95% CI)", "setting": "Week 7, ITT", "result": "4.35 (−7.06, 15.76)"}, {"measurement": "AAS7 Change from baseline LS Mean (SE)", "setting": "Week 7, ITT", "result": "−22.95 (4.29)"}, {"measurement": "AAS7 Post-baseline Mean (SD)", "setting": "Week 7, ITT", "result": "31.05 (21.43)"}, {"measurement": "Non-responder n (%), AAS7 = 0", "setting": "Week 7, omalizumab-naïve", "result": "24 (64.9) n (%)"}, {"measurement": "OR (95% CI) for rilzabrutinib vs. placebo, AAS7 = 0", "setting": "Week 7, omalizumab-naïve", "result": 0.611}, {"measurement": "RRD (%) for rilzabrutinib vs. placebo (95% CI), AAS7 = 0", "setting": "Week 7, omalizumab-naïve", "result": "−11.8", "unit": "%"}, {"measurement": "Responder n (%), AAS7 = 0", "setting": "Week 7, omalizumab-naïve", "result": "13 (35.1) n (%)"}, {"measurement": "AAS7 % Change difference for rilzabrutinib vs. placebo LS Mean (95% CI)", "setting": "Week 7, omalizumab-naïve", "result": "19.61 (−12.44, 51.65) %"}, {"measurement": "AAS7 = 0, OR (95% CI) for rilzabrutinib vs. placebo", "setting": "Week 7, omalizumab-naïve", "result": 0.200}, {"measurement": "AAS7 = 0, RRD (%) for rilzabrutinib vs. placebo (95% CI)", "setting": "Week 7, omalizumab-naïve", "result": "−23.0", "unit": "%"}, {"measurement": "AAS7 Post-baseline Mean (SD)", "setting": "Week 7, omalizumab-naïve", "result": "31.88 (21.51)"}, {"measurement": "AAS7 % Change difference for rilzabrutinib vs. placebo LS Mean (95% CI)", "setting": "Week 8, ITT", "result": "−2.51 (−32.23, 27.22) %"}, {"measurement": "AAS7 Change difference for rilzabrutinib vs. placebo LS Mean (95% CI)", "setting": "Week 8, ITT", "result": "−1.74 (−12.55, 9.06)"}, {"measurement": "AAS7 Change from baseline LS Mean (SE)", "setting": "Week 8, ITT", "result": "−30.07 (4.07)"}, {"measurement": "AAS7 Post-baseline Mean (SD)", "setting": "Week 8, ITT", "result": "24.69 (22.82)"}, {"measurement": "Non-responder n (%), AAS7 = 0", "setting": "Week 8, omalizumab-naïve", "result": "20 (54.1) n (%)"}, {"measurement": "OR (95% CI) for rilzabrutinib vs. placebo, AAS7 = 0", "setting": "Week 8, omalizumab-naïve", "result": 1.185}, {"measurement": "RRD (%) for rilzabrutinib vs. placebo (95% CI), AAS7 = 0", "setting": "Week 8, omalizumab-naïve", "result": 4.2, "unit": "%"}, {"measurement": "Responder n (%), AAS7 = 0", "setting": "Week 8, omalizumab-naïve", "result": "17 (45.9) n (%)"}, {"measurement": "AAS7 % Change difference for rilzabrutinib vs. placebo LS Mean (95% CI)", "setting": "Week 8, omalizumab-naïve", "result": "−4.14 (−36.36, 28.09) %"}, {"measurement": "AAS7 = 0, Non-responder n (%)", "setting": "Week 8, omalizumab-naïve", "result": "20 (74.1) n (%)"}, {"measurement": "AAS7 = 0, OR (95% CI) for rilzabrutinib vs. placebo", "setting": "Week 8, omalizumab-naïve", "result": 0.929}, {"measurement": "AAS7 = 0, RRD (%) for rilzabrutinib vs. placebo (95% CI)", "setting": "Week 8, omalizumab-naïve", "result": "−1.3", "unit": "%"}]}]}
